# In patent US20250129078A1, “ERBB2 INHIBITORS” (Cogent Biosciences, Inc., priority 2023, published 2025):
# Counter-ions that a name gives are not always drawn.
# Tests used:
# ErbB2 V777L = ErbB2 V777L (Homo sapiens (Human), UniProt P04626, V777L); test: ErbB enzyme assay (CisBio HTRF-KinEASE-TK), ErbB2 V777L; type: biochemical; details: ErbB2 V777L enzyme, ATP at Km (110 μM), 1 h incubation
# Procedure: In vitro enzyme assays based on CisBio HTRF-KinEASE-TK technology were used to determine compound potencies. […] After another 1 h incubation at ambient temperature, the extent of substrate phosphorylation was determined using a PerkinElmer EnVision multimode plate reader via time-resolved fluorescence dual wavelength detection. The percent of control (POC) was calculated using the ratio of emission at […] to the emission at 620 nm. One hundred POC was determined using DMSO only controls (no test compounds present) and zero POC was determined using pre-quenched controls reactions. A 4-parameter logistic equation was fit to the POC values as a function of the test compound concentration and the IC50 value was determined as the point where the curve crossed 50 POC.
# EGFR WT = EGFR WT (Homo sapiens (Human), UniProt P00533); test: ErbB enzyme assay (CisBio HTRF-KinEASE-TK), EGFR WT; type: biochemical; details: ATP at Km (25 μM), 1 h incubation
# Method in brief: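 IC50 comes from a 4-parameter fit where the curve crosses 50 percent of control, using the 655/620 nm time-resolved fluorescence ratio with DMSO-only and pre-quenched references. Kinase reactions ran 1 h at ambient temperature before Sa-XL665/cryptate-antibody detection (1 h).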
# EGFR WT, sequence (P00533 25-1210): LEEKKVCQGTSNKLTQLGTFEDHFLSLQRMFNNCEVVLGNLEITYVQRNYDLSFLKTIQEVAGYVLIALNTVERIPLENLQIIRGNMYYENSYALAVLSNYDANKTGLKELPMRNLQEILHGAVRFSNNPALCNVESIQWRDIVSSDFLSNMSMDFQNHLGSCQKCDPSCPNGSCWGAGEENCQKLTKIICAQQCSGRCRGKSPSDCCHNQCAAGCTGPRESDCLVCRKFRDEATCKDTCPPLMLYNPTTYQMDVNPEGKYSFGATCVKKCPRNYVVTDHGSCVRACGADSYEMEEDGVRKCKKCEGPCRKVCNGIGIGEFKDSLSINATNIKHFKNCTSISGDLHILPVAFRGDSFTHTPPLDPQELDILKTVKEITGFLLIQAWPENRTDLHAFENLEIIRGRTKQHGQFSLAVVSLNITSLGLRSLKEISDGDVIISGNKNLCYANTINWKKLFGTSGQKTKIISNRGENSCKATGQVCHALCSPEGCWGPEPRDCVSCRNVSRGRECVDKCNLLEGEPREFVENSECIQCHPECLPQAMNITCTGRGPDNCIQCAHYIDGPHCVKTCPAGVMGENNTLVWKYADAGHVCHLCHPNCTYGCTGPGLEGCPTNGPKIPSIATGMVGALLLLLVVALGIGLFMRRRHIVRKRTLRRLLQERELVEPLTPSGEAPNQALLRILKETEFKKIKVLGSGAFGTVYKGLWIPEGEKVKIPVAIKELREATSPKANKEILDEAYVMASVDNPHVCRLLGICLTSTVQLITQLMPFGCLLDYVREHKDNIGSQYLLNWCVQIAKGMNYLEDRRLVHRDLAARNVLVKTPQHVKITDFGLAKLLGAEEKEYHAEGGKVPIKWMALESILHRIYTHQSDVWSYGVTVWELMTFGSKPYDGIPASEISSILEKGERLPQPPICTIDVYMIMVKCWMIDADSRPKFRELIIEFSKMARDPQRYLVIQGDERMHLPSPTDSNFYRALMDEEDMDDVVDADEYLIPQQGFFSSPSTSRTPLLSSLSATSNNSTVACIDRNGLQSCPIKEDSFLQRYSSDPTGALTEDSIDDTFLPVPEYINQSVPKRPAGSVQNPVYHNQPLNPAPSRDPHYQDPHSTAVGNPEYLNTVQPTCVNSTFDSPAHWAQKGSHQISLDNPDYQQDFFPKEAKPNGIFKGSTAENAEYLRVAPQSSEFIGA
# ErbB2 V777L, sequence (P04626 23-1255 V777L): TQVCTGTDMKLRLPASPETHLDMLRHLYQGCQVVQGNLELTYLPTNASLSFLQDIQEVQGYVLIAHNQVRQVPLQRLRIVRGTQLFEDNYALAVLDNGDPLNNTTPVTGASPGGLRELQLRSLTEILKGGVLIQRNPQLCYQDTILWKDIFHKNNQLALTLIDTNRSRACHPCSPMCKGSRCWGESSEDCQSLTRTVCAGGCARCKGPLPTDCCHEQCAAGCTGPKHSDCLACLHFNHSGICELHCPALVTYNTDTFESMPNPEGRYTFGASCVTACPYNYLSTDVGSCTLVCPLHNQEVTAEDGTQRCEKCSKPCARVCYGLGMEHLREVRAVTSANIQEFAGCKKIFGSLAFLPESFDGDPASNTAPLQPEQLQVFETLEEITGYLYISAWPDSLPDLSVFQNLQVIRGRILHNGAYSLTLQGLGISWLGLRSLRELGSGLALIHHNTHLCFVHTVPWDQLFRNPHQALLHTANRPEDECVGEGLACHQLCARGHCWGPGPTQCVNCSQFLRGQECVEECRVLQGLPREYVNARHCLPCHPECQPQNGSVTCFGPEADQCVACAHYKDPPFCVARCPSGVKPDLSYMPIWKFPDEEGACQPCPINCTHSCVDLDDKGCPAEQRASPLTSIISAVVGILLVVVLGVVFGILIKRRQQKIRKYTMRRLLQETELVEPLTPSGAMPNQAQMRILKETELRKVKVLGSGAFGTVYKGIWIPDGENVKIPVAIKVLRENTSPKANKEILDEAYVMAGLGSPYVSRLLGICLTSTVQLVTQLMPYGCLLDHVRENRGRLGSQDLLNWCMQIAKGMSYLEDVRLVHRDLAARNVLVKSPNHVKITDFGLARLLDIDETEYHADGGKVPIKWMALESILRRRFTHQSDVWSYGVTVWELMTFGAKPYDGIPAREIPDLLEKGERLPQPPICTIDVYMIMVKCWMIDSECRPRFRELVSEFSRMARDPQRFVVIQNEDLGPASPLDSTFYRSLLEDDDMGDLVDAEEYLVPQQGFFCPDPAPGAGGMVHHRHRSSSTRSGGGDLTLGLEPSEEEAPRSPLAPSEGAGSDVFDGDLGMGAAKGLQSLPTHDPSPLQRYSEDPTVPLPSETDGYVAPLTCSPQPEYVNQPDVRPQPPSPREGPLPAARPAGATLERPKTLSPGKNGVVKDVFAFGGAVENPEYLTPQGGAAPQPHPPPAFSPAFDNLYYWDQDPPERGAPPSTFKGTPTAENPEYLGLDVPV
Structure (SMILES),IC50 (ErbB2 V777L) [nM],IC50 (EGFR WT) [nM]
"C=CC(=O)N1CCN(c2ncc3ncnc(Nc4cc(C)c(Oc5cc(F)c6c(c5)nnn6C)cc4OC)c3n2)C[C@H]1C [Compound 166, (R)-1-(4-(8-((4-((7-fluoro-1-methyl-1H-benzo[d][1,2,3]triazol-5-yl)oxy)-2-methoxy-5-methylphenyl)amino)pyrimido[5,4-d]pyrimidin-2-y1)-2-methylpiperazin-1-yl)prop-2-en-1-one]",500 to 1000,
"C=CC(=O)N1CCCN(c2ccc3ncnc(Nc4ccc(Oc5ccc6c(c5)nnn6C)c(C)c4)c3n2)CC1 [Compound 353, 1-(4-(4-((3-methyl-4-((1-methyl-1H-benzo[d][1,2,3]triazol-5-yl)oxy)phenyl)amino)pyrido[3,2-d]pyrimidin-6-yl)-1,4-diazepan-1-yl)prop-2-en-1-one]",100 to 500,
"C=CC(=O)N1CCN(c2ccc3ncnc(Nc4ccc(Oc5ccc6c(c5)ncn6C(F)F)c(C)c4F)c3c2)CC1 [Compound 375, 1-(4-(4-((4-((1-(difluoromethyl)-1H-benzo[d]imidazol-5-yl)oxy)-2-fluoro-3-methylphenyl)amino)quinazolin-6-yl)piperazin-1-yl)prop-2-en-1-one]",,50 to 100
"C=CC(=O)N1CCC(Oc2ncc3ncnc(Nc4ccc(Oc5ccn6ncnc6c5)c(C)c4)c3n2)CC1 [Compound 376, 1-(4-((8-((4-([1,2,4]triazolo[1,5-a]pyridin-7-yloxy)-3-methylphenyl)amino)pyrimido[5,4-d]pyrimidin-2-yl)oxy)piperidin-1-yl)prop-2-en-1-one]",,100 to 500
"C=CC(=O)N1CCC(Oc2ncc3ncnc(Nc4ccc(Oc5ccc6c(c5)ncn6C)c(C)c4)c3n2)CC1 [Compound 378, 1-(4-((8-((3-methyl-4-((1-methyl-1H-benzo[d]imidazol-5-yl)oxy)phenyl)amino)pyrimido[5,4-d]pyrimidin-2-yl)oxy)piperidin-1-yl)prop-2-en-1-one]",,50 to 100
"C=CC(=O)N1CCC(Oc2ncc3ncnc(Nc4ccc(Oc5cc(F)c6c(c5)ncn6C)c(C)c4)c3n2)CC1 [Compound 381, 1-(4-((8-((4-((7-fluoro-1-methyl-1H-benzo[d]imidazol-5-yl)oxy)-3-methylphenyl)amino)pyrimido[5,4-d]pyrimidin-2-yl)oxy)piperidin-1-yl)prop-2-en-1-one]",,< 50
"C=CC(=O)N1CC(Oc2ncc3ncnc(Nc4ccc(Oc5ccc6c(c5)ncn6C)c(C)c4)c3n2)C1 [Compound 383, 1-(3-((8-((3-methyl-4-((1-methyl-1H-benzo[d]imidazol-5-yl)oxy)phenyl)amino)pyrimido[5,4-d]pyrimidin-2-yl)oxy)azetidin-1-yl)prop-2-en-1-one]",,< 50
"C=CC(=O)N1CC[C@@H](Oc2ncc3ncnc(Nc4ccc(Oc5cc(F)c6c(c5)ncn6C)c(C)c4)c3n2)C1 [Compound 385, (R)-1-(3-((8-((4-((7-fluoro-1-methyl-1H-benzo[d]imidazol-5-yl)oxy)-3-methylphenyl)amino)pyrimido[5,4-d]pyrimidin-2-yl)oxy)pyrrolidin-1-yl)prop-2-en-1-one]",,100 to 500
"C=CC(=O)N1CC(Oc2ncc3ncnc(Nc4ccc(Oc5cc(F)c6c(c5)ncn6C)c(C)c4)c3n2)C1 [Compound 388, 1-(3-((8-((4-((7-fluoro-1-methyl-1H-benzo[d]imidazol-5-yl)oxy)-3-methylphenyl)amino)pyrimido[5,4-d]pyrimidin-2-yl)oxy)azetidin-1-yl)prop-2-en-1-one]",,< 50
"C=CC(=O)N1CC[C@H](Oc2ncc3ncnc(Nc4ccc(Oc5cc(F)c6c(c5)ncn6C)c(C)c4)c3n2)C1 [Compound 389, (S)-1-(3-((8-((4-((7-fluoro-1-methyl-1H-benzo[d]imidazol-5-yl)oxy)-3-methylphenyl)amino)pyrimido[5,4-d]pyrimidin-2-yl)oxy)pyrrolidin-1-yl)prop-2-en-1-one]",,< 50
"C=CC(=O)N1CCC(Oc2ncc3ncnc(Nc4ccc(Oc5ccc6c(c5)nnn6C)c(C)c4)c3n2)CC1 [Compound 390, 1-(4-((8-((3-methyl-4-((1-methyl-1H-benzo[d][1,2,3]triazol-5-yl)oxy)phenyl)amino)pyrimido[5,4-d]pyrimidin-2-yl)oxy)piperidin-1-yl)prop-2-en-1-one]",,< 50
"C=CC(=O)N1C(C)(C)CC(c2ccc3ncnc(Nc4ccc(Oc5ccc6c(c5)nnn6C)c(C)c4)c3n2)CC1(C)C [Compound 399, 1-(2,2,6,6-tetramethyl-4-(4-((3-methyl-4-((1-methyl-1H-benzo[d][1,2,3]triazol-5-yl)oxy)phenyl)amino)pyrido[3,2-d]pyrimidin-6-yl)piperidin-1-yl)prop-2-en-1-one]",,≥ 1000
"C=C(F)C(=O)N1CC=C(c2ccc3ncnc(Nc4ccc(Oc5ccc6c(c5)nnn6C)c(C)c4)c3n2)C1 [Compound 403, 2-fluoro-1-(3-(4-((3-methyl-4-((1-methyl-1H-benzo[d][1,2,3]triazol-5-yl)oxy)phenyl)amino)pyrido[3,2-d]pyrimidin-6-yl)-2,5-dihydro-1H-pyrrol-1-yl)prop-2-en-1-one]",,50 to 100
"C=C(F)C(=O)N1C2C=C(c3ccc4ncnc(Nc5ccc(Oc6ccc7c(c6)nnn7C)c(C)c5)c4n3)CC1CCC2 (stereo not drawn) [Compound 406, 2-fluoro-1-(3-(4-((3-methyl-4-((1-methyl-1H-benzo[d][1,2,3]triazol-5-yl)oxy)phenyl)amino)pyrido[3,2-d]pyrimidin-6-yl)-9-azabicyclo[3.3.1]non-2-en-9-yl)prop-2-en-1-one trifluoroacetate]",,≥ 1000
"C=C(F)C(=O)N1C2C=C(c3ccc4ncnc(Nc5ccc(Oc6ccc7c(c6)nnn7C)c(C)c5)c4n3)CC1CC2 (stereo not drawn) [Compound 411, 2-fluoro-1-(3-(4-((3-methyl-4-((1-methyl-1H-benzo[d][1,2,3]triazol-5-yl)oxy)phenyl)amino)pyrido[3,2-d]pyrimidin-6-yl)-8-azabicyclo[3.2.1]oct-2-en-8-yl)prop-2-en-1-one trifluoroacetate]",,≥ 1000

# Second part, the molecule after the results:
IC50 (ErbB2 V777L) [nM],IC50 (EGFR WT) [nM],Structure (SMILES)
,100 to 500,"C=CC(=O)N1CCN(c2nc3c(Nc4ccc(Oc5ccc6c(c5)nnn6C)c(C)c4)ncnc3cc2F)CC1 [Compound 373, 1-(4-(7-fluoro-4-((3-methyl-4-((1-methyl-1H-benzo[d][1,2,3]triazol-5-yl)oxy)phenyl)amino)pyrido[3,2-d]pyrimidin-6-yl)piperazin-1-yl)prop-2-en-1-one]"
,100 to 500,"C=CC(=O)N1CCC(Oc2ncc3ncnc(Nc4ccc(Oc5ccc6c(c5)ncn6C)c(OC)c4)c3n2)CC1 [Compound 379, 1-(4-((8-((3-methoxy-4-((1-methyl-1H-benzo[d]imidazol-5-yl)oxy)phenyl)amino)pyrimido[5,4-d]pyrimidin-2-yl)oxy)piperidin-1-yl)prop-2-en-1-one]"
,< 50,"C=CC(=O)N1CCC(Oc2ncc3ncnc(Nc4ccc(Oc5ccc6c(c5)ncn6C(F)F)c(C)c4)c3n2)CC1 [Compound 380, 1-(4-((8-((4-((1-(difluoromethyl)-1H-benzo[d]imidazol-5-yl)oxy)-3-methylphenyl)amino)pyrimido[5,4-d]pyrimidin-2-y1)oxy)piperidin-1-yl)prop-2-en-1-one]"
,< 50,"C=CC(=O)N1CCC(Oc2ncc3ncnc(Nc4ccc(Oc5ccc6c(c5)ncn6C)c(C)c4)c3n2)C(F)(F)C1 (stereo not drawn) [Compound 393, 1-(3,3-difluoro-4-((8-((3-methyl-4-((1-methyl-1H-benzo[d]imidazol-5-yl)oxy)phenyl)amino)pyrimido[5,4-d]pyrimidin-2-y1)oxy)piperidin-1-yl)prop-2-en-1-one]"
,< 50,"C=CC(=O)N1CCC(Oc2nc3c(Nc4ccc(Oc5ccc6c(c5)ncn6C)c(C)c4F)ncnc3cc2OC)CC1 [Compound 394, 1-(4-((4-((2-fluoro-3-methyl-4-((1-methyl-1H-benzo[1d]imidazol-5-yl)oxy)phenyl)amino)-7-methoxypyrido[3,2-d]pyrimidin-6-yl)oxy)piperidin-1-yl)prop-2-en-1-one]"
,< 50,"C=CC(=O)N1CCC=C(c2ccc3ncnc(Nc4ccc(Oc5ccc6c(c5)nnn6C)c(C)c4)c3n2)C1 [Compound 407, 1-(5-(4-((3-methyl-4-((1-methyl-1H-benzo[d][1,2,3]triazol-5-yl)oxy)phenyl)amino)pyrido[3,2-d]pyrimidin-6-yl)-3,6-dihydropyridin-1(2H)-yl)prop-2-en-1-one]"
,100 to 500,"C=CC(=O)N1C2C=C(c3ccc4ncnc(Nc5ccc(Oc6ccc7c(c6)nnn7C)c(C)c5)c4n3)CC1COC2 (stereo not drawn) [Compound 408, 1-(7-(4-((3-methyl-4-((1-methyl-1H-benzo[d][1,2,3]triazol-5-yl)oxy)phenyl)amino)pyrido[3,2-d]pyrimidin-6-yl)-3-oxa-9-azabicyclo[3.3.1]non-6-en-9-yl)prop-2-en-1-one trifluoroacetate]"
,≥ 1000,"C=C(F)C(=O)N1C2C=C(c3ccc4ncnc(Nc5ccc(Oc6ccc7c(c6)nnn7C)c(C)c5)c4n3)CC1COC2 (stereo not drawn) [Compound 410, 2-fluoro-1-(7-(4-((3-methyl-4-((1-methyl-1H-benzo[d][1,2,3]triazol-5-yl)oxy)phenyl)amino)pyrido[3,2-d]pyrimidin-6-yl)-3-oxa-9-azabicyclo[3.3.1]non-6-en-9-yl)prop-2-en-1-one trifluoroacetate]"
,≥ 1000,"C=CC(=O)N1C2C=C(c3ccc4ncnc(Nc5cc(C)c(Oc6ccc7c(c6)nnn7C)cc5OC)c4n3)CC1CCC2 (stereo not drawn) [Compound 413, 1-(3-(4-((2-methoxy-5-methyl-4-((1-methyl-1H-benzo[d][1,2,3]triazol-5-yl)oxy)phenyl)amino)pyrido[3,2-d]pyrimidin-6-yl)-9-azabicyclo[3.3.1]non-2-en-9-yl)prop-2-en-1-one trifluoroacetate]"
